From article PMC6594753, “Cystic fibrosis drug ivacaftor stimulates CFTR channels at picomolar concentrations” (eLife, 2019)
In brackets after ≈: the same amount, converted by molar mass. Several values for one entry are separate records, joined by “and”; a condition that tells them apart may be missing. Identical values can stand only once.

Tests used:
[1] = molecular target: T1, G551D CFTR (Homo sapiens, UniProt P13569, G551D); assay: Quasi-macroscopic current recording in excised inside-out patches from Xenopus laevis oocytes; format: biochemical
T1 construct: expressed in transfected cells; host or cells: Xenopus laevis oocytes injected with cRNA transcribed from mutated pGEMHE-CFTR
Text: (§1) We reasoned that this circumstance might explain some of the puzzling features of the drug, such as CFTR channel inactivation observed in some cases ([Cholon et al., 2014]), as well as apparent irreversibility of drug effects ([Jih and Hwang, 2013]; [Lin et al., 2016]; [Yeh et al., 2015]; [Yeh et al., 2017]; [Wang et al., 2014]; [Wang et al., 2018]). To investigate stability and reversibility of Vx-770 effects in a concentration range that can be achieved in the human body during oral drug administration, we tested the effects of our 1x saturated Vx-770 solution and its dilutions in inside-out patches excised from Xenopus laevis oocytes expressing WT or mutant human CFTR channels.
(§2) The G551D and ΔF508 mutations were introduced into pGEMHE-CFTR using the QuikChange Kit (Agilent, Santa Clara, CA, USA), and confirmed by automated sequencing; cDNA was purified (HiSpeed Plasmid Midi Kit, Qiagen), transcribed in vitro (mMessage T7 Kit, ThermoFisher Scientific, Waltham, MA USA) and cRNA stored at −80°C.
(§3) Patch pipette solution contained (in mM): 136 NMDG-Cl, 2 MgCl2, 5 HEPES, pH = 7.4 with NMDG. Bath solution contained (in mM): 134 NMDG-Cl, 2 MgCl2, 5 HEPES, 0.5 EGTA, pH = 7.1 with NMDG. MgATP (2 mM) was added from a 400 mM aqueous stock solution (pH = 7.1 with NMDG). Before each experiment 300 nM catalytic subunit of PKA (Sigma-Aldrich Kft., Budapest, Hungary) was applied for ~1 min to phosphorylate CFTR channels. Vx-770 (Selleck Chemicals) was diluted into the bath solution either from a ‘1x saturated’ aqueous stock solution (see above, concentration ~62 nM), or from a commercially obtained 10 mM stock dissolved in DMSO (Selleck Chemicals). Following patch excision the patch pipette was moved into a flow chamber, and recordings were done under continuous superfusion of the cytosolic patch surface. Solution compositions were exchanged using computer-driven electronic valves (solution exchange time constant <50 ms). After each recording day perfusion tubings were extensively washed with distilled water. Although supersaturated solutions of Vx-770 were not employed here, any perfusion tubing that had ever been in contact with a given concentration of Vx-770 was subsequently used only for solutions that contained the same, or higher, concentrations of the drug. After every 5–6 experimental days the entire perfusion system was replaced. Currents were recorded at 25°C, at a membrane potential of −40 mV, digitized at 10 kHz, Gaussian-filtered at 2 kHz, and recorded to disk (Axopatch 200B, Digidata 1322A, Pclamp9 (Molecular Devices, RRID: SCR_011323)). For display purposes, currents are shown filtered at 10 Hz and sampled at 20 Hz, and expanded single-channel traces (Figure 2b, Figure 4d) are shown filtered at 50 Hz and sampled at 250 Hz.
(§4) Vx-770 was applied after currents elicited by 2 mM ATP had stabilized. To allow for full development of its potentiator effect, Vx-770 was superfused until the current reached steady state which, for low nanomolar Vx-770, required up to 5–6 min. After full stimulation, Vx-770 was washed off for at least 5 min to allow the current to decline to a post-drug steady state. Fractional current stimulation by Vx-770 (I/Icontrol) was calculated as the mean steady current in the presence of the drug, divided by the average of the pre- and post-drug mean steady currents. Dose response curves (Figure 3c,f) were least-squares fitted to the modified Hill equation I/Icontrol=(K0.5^n+(Imax/Icontrol)[Vx-770]^n)/(K0.5^n+[Vx-770]^n), with Imax/Icontrol, K0.5, and n as free parameters.
(§5) To obtain apparent deactivation rates, current decay time courses following Vx-770 removal were fitted by single exponentials using least squares, and deactivation rates defined as the inverse of the decay time constant (1/τoff; Figure 4c). To obtain apparent activation rates, current activation time courses upon Vx-770 addition were fitted to an empirical three-step kinetic scheme S1→S2→S3→S4. […]

[2] = molecular target: T2, ΔF508 CFTR (Homo sapiens, UniProt P13569, DEL508-508); assay: as above; format: biochemical
T2 construct: expressed in transfected cells; host or cells: Xenopus laevis oocytes injected with cRNA transcribed from mutated pGEMHE-CFTR
Text: as §1, §2, §3, §4, §5

[3] = molecular target: T3, WT CFTR (Homo sapiens, UniProt P13569); assay: Single-channel recording in excised inside-out patches, kinetic analysis of microscopic patches; format: biochemical
T3 construct: expressed in transfected cells; host or cells: Xenopus laevis oocytes injected with cRNA transcribed from pGEMHE-CFTR
Procedure: as §3
Segments of current recording originating from 1 to 7 active channels were digitally filtered at 50 Hz, and idealized by half-amplitude threshold crossing. Steady-state open probabilities in 2 mM ATP, before or during application of Vx-770 or after its removal (Figure 2c), were calculated from the events lists as the time-average of the fraction of open channels. A closed-open-blocked (C-O-B) kinetic scheme, which separates brief (~10 ms) flickery closures (to state B) from long (~1 s) interburst closures (to state C), was fitted by maximum likelihood to the set of dwell-time histograms for all conductance levels, to obtain microscopic transition rates rCO, rOC, rOB, and rBO, while accounting for a fixed dead time of 6 ms ([Csanády, 2000]). The software is freely available upon request. Mean burst (τb) and interburst (τib) durations were calculated as τb=(1/rOC)(1 + rOB/rBO) and τib=1/rCO, and channel opening and closing rates (Figure 2c) defined as 1/τib and 1/τb, respectively. […]

[4] = Determination of Vx-770 solubility profile (incremental solvent addition; saturated saline, 1-octanol extraction, spectrophotometry at 311 nm); format: physicochemical; conditions: aqueous saline (standard bath solution), read-out: aqueous solubility Saq
[5] = diluted from 1x saturated aqueous stock, 2 mM ATP, read-out: K0.5 for current stimulation
[6] = single channel, 0.05x saturated (~3 nM) Vx-770

T3 sequence (P13569 whole entry): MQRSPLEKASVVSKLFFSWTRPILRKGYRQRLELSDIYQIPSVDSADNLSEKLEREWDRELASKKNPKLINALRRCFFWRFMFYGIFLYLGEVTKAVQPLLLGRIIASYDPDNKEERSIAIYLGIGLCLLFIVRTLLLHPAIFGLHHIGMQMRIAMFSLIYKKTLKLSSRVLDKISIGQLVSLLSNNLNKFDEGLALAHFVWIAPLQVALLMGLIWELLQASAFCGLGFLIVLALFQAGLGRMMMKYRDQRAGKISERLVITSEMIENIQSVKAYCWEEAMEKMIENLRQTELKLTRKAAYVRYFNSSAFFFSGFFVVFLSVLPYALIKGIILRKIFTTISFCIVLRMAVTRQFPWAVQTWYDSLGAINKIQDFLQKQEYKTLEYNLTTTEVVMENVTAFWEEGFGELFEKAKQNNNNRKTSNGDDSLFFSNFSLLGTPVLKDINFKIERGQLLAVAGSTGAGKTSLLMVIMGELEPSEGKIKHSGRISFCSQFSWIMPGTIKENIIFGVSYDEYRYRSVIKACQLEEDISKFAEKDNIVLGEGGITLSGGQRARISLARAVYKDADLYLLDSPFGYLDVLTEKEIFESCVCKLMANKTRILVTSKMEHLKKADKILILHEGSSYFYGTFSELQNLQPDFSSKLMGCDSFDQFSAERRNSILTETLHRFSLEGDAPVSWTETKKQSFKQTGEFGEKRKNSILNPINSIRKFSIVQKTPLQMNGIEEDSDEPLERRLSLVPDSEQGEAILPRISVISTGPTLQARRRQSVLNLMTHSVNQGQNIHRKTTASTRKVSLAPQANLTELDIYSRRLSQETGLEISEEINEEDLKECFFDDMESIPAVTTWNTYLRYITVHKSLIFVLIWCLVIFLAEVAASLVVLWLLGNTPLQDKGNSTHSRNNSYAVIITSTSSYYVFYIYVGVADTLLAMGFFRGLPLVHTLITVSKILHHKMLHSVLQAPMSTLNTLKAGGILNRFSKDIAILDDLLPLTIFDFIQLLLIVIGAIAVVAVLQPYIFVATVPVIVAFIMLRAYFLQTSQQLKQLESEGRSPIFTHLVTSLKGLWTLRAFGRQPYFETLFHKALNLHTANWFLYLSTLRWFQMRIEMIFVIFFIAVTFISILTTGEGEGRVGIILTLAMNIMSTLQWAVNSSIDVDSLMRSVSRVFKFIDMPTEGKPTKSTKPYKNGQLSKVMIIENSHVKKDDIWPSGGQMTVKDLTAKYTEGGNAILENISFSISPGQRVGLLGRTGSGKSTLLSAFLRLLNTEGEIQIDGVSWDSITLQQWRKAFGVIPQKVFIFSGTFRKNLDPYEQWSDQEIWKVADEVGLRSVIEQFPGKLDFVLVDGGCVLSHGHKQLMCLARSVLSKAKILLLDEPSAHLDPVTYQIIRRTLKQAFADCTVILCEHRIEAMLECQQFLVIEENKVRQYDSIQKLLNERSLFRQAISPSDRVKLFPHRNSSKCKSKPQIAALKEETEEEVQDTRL
T2 sequence (P13569 with tags, fused parts or gaps DEL508-508): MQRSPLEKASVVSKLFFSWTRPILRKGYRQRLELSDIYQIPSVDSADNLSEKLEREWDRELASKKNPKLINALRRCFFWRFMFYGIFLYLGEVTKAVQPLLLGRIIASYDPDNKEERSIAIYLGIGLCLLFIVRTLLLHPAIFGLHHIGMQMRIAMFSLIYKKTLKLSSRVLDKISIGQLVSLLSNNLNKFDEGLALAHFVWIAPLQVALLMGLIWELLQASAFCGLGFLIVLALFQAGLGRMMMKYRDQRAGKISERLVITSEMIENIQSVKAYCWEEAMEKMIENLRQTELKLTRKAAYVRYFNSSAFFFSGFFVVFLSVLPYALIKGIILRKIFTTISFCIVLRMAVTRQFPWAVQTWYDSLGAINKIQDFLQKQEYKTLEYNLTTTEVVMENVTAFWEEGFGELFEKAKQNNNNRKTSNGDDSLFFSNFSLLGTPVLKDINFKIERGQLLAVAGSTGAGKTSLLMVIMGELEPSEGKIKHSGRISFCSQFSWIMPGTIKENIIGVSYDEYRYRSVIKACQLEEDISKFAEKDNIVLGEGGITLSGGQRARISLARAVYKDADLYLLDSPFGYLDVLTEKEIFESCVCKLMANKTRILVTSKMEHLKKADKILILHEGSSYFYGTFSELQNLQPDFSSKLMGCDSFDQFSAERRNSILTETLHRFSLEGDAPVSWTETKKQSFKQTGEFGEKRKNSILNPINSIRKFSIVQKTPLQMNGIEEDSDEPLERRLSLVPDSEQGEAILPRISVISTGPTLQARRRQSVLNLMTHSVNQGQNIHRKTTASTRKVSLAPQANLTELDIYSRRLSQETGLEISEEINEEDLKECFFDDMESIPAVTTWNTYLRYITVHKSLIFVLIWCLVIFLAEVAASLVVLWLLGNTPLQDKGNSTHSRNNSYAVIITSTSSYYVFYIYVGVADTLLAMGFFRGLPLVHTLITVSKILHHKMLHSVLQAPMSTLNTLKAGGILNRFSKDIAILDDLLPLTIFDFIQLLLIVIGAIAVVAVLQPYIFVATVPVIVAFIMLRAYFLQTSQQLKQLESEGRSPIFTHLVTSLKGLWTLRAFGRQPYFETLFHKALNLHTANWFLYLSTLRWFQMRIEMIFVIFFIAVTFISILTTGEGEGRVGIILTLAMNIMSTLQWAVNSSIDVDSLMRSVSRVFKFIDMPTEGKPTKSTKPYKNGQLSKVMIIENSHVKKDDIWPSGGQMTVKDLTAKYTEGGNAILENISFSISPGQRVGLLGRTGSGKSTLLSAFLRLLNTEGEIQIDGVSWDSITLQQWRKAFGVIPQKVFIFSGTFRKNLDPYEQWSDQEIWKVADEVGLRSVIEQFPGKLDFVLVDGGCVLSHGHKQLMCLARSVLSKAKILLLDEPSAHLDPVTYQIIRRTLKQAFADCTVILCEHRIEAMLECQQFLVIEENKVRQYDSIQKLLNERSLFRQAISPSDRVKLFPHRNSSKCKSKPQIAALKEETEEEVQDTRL
T1 sequence (P13569 whole entry G551D): as the sequence (P13569 whole entry) above, with G551D counted along it

In the case of CC(C)(C)c1cc(C(C)(C)C)c(NC(=O)c2c[nH]c3ccccc3c2=O)cc1O [Vx-770, ivacaftor], the Hill coefficient [1] is reported as 1.22±0.10, the “potency higher than previously reported” value [1] is reported as ~ 200 fold and the “reversibility of current stimulation” value [1] is reported as “fully reversible”. The “time constant of reversal” value [1] was ~ 2 min, the EC50 [1, 5] was 1.42 nM and ~1.5 nM and the Hill coefficient [2] was 1.12±0.07. For the same molecule, the “reversibility of current stimulation” value [2] was “fully reversible”, the “time constant of reversal” value [2] was ~ 2 min and the EC50 [2, 5] was 1.53 nM and ~1.5 nM. For the same molecule, the “stimulation of open probability” value ([3]; 0.05x saturated (~3 nM) Vx-770 (20-fold dilution of 1x stock), 2 mM ATP) was ~ 4 fold, the “reversibility of effects on channel gating” value ([3]; following washout of 0.05x saturated Vx-770) was “fully reversible” and the “time of switch back to low-activity gating after drug removal” value [3, 6] was ~ 5 min. For the same molecule, the “time of switch from low- to high-activity gating after initiation of drug exposure” value [3, 6] was ~ 3 min, the solubility ([4]; pH 7.1, 37°C, pH = 7.1, aqueous saline) was 0.138 ± 0.001 µM (≈ 0.0542 µg/mL) and the solubility at 24 h ([4]; pH 7.4, 25°C, pH = 7.4, aqueous saline) was 0.05 ± 0.001 µM (≈ 0.0196 µg/mL).
